Where a SMILES comes first, the peptide text is derived from it. [ ]: non-standard residue; d: D form. NMeF = CN[C@@H](Cc1ccccc1)C(=O)O; dNMeF = CN[C@H](Cc1ccccc1)C(=O)O; NMeL = CN[C@@H](CC(C)C)C(=O)O; dNMeL = CN[C@H](CC(C)C)C(=O)O; NMeV = CN[C@H](C(=O)O)C(C)C; NMeA = CN[C@@H](C)C(=O)O; dNMeA = CN[C@H](C)C(=O)O
Columns and labels:
[1] = PAMPA
in vitro = conditions: PAMPA, PAMPA_Papp_Avg

| Compound | PAMPA_R1 [1] | PAMPA_R3 [1] | Papp (in vitro) [×10⁻⁶ cm/s] |
| --- | --- | --- | --- |
| CC[C@H](C)[C@@H]1NC(=O)[C@@H](CC(C)C)N(C)C(=O)[C@H](CC(C)C)N(C)C(=O)[C@@H](C)N(C)C(=O)[C@@H](Cc2ccccc2)NC(=O)[C@H](C(C)C)NC(=O)[C@@H](C)NC(=O)[C@@H]2CCCN2C(=O)[C@H]2CCCN2C1=O [Design D9.10, VAL DPHE *DALA *LEU *DLEU ILE DPRO PRO DALA] (cyclo([dA]V[dF][dNMeA][NMeL][dNMeL]I[dP]P)) | 1.20E-06 | 6.09E-07 | 0.826 |
| CC[C@@H](C)[C@H]1NC(=O)[C@H]2CCCN2C(=O)[C@@H](C)NC(=O)[C@@H](CC(C)C)N(C)C(=O)[C@H]([C@@H](C)CC)NC(=O)[C@@H](C(C)C)NC(=O)[C@@H](CC(C)C)N(C)C(=O)[C@@H]2CCCN2C(=O)[C@@H]2CCCN2C1=O [Design D9.26, DPRO DILE PRO PRO *DLEU DVAL ILE *DLEU DALA] (cyclo(I[dNMeL][dA][dP][dI]PP[dNMeL][dV])) | 2.58E-06 | 2.23E-06 | 2.32 |
| CC[C@@H](C)[C@H]1NC(=O)[C@@H](Cc2ccccc2)N(C)C(=O)[C@@H]2CCCN2C(=O)[C@@H]([C@H](C)CC)NC(=O)[C@@H](Cc2ccccc2)N(C)C(=O)[C@@H]2CCCN2C1=O [Design D6.2, DILE PRO *DPHE DILE PRO *DPHE] (cyclo(P[dNMeF][dI]P[dNMeF][dI])) | 1.72e-05 cm/s | 1.15e-05 cm/s | 12.1 |
| CC(C)C[C@@H]1NC(=O)[C@@H]2CCCN2C(=O)[C@H]2CCCN2C(=O)[C@H](CC(C)C)NC(=O)[C@H](C)N(C)C(=O)[C@H]2CCCN2C(=O)[C@@H](CC(C)C)NC1=O [Design D7.6, DLEU DPRO *ALA LEU DPRO PRO LEU] (cyclo(L[dL][dP][NMeA]L[dP]P)) | 2.16e-06 cm/s | 6.12e-06 cm/s | 3.62 |
| CC(C)C[C@H]1NC(=O)[C@H]2CCCN2C(=O)[C@H](CC(C)C)N(C)C(=O)[C@@H](C)N(C)C(=O)[C@@H](Cc2ccccc2)NC(=O)[C@@H](C(C)C)NC(=O)[C@H]2CCCN2C(=O)[C@@H](CC(C)C)NC1=O [Design D8.19, DPHE *DALA *LEU DPRO DLEU DLEU DPRO DVAL] (cyclo([NMeL][dP][dL][dL][dP][dV][dF][dNMeA])) | 3.45E-06 | 2.33E-06 | 2.88 |
| CC[C@@H](C)[C@H]1NC(=O)[C@@H](CC(C)C)NC(=O)[C@@H](CC(C)C)NC(=O)[C@H]2CCCN2C(=O)[C@H](CC(C)C)N(C)C(=O)[C@@H](C)N(C)C(=O)[C@@H]2CCCN2C(=O)[C@@H]([C@H](C)CC)NC(=O)[C@@H](C(C)C)NC(=O)[C@@H]2CCCN2C1=O [Design D10.46, PRO DVAL DILE PRO *DALA *LEU DPRO DLEU DLEU DILE] (cyclo([NMeL][dP][dL][dL][dI]P[dV][dI]P[dNMeA])) | 8.07E-07 | 6.41E-07 | 0.684 |
| CC(C)[C@@H]1NC(=O)[C@H]2CCCN2C(=O)[C@@H](C(C)C)NC(=O)[C@@H]2CCCN2C(=O)[C@H](Cc2ccccc2)NC(=O)[C@H](Cc2ccccc2)NC(=O)[C@H]2CCCN2C(=O)[C@@H](C(C)C)NC(=O)[C@@H]2CCCN2C(=O)[C@H](C(C)C)NC1=O [Design D10.27, PRO DVAL DPRO VAL VAL PRO DVAL DPRO PHE PHE] (cyclo(FFP[dV][dP]VVP[dV][dP])) | 5.18E-07 | 5.10E-07 | 0.49 |
| CC(C)C[C@@H]1C(=O)N(C)[C@H](Cc2ccccc2)C(=O)N(C)[C@@H](CC(C)C)C(=O)N[C@H](C(C)C)C(=O)N[C@H](C)C(=O)N2CCC[C@@H]2C(=O)N2CCC[C@H]2C(=O)N[C@H](C)C(=O)N1C [Design D8.20, PRO DALA *DLEU *DPHE *LEU DVAL DALA DPRO] (cyclo([dA][dNMeL][dNMeF][NMeL][dV][dA][dP]P)) | 1.00E-06 | 1.46E-06 | 1.08 |
| CC(C)C[C@@H]1C(=O)N[C@@H](C(C)C)C(=O)N[C@@H](C)C(=O)N2CCC[C@H]2C(=O)N2CCC[C@@H]2C(=O)N[C@@H](C(C)C)C(=O)N[C@@H](C)C(=O)N(C)[C@@H](CC(C)C)C(=O)N1C [Design D8.22, ALA PRO DPRO VAL ALA *LEU *DLEU VAL] (cyclo(A[NMeL][dNMeL]VAP[dP]V)) | 2.34E-07 | 1.57E-07 | 0.215 |
| CC[C@@H](C)[C@H]1NC(=O)[C@H](CC(C)C)N(C)C(=O)[C@H]2CCCN2C(=O)[C@@H](Cc2ccccc2)N(C)C(=O)[C@@H](Cc2ccccc2)N(C)C(=O)[C@H](CC(C)C)N(C)C(=O)[C@@H](C(C)C)NC(=O)[C@@H]2CCCN2C(=O)[C@H](C)NC1=O [Design D9.9, PRO DVAL *LEU *DPHE *DPHE DPRO *LEU DILE ALA] (cyclo(AP[dV][NMeL][dNMeF][dNMeF][dP][NMeL][dI])) | 7.88E-07 | 2.31E-07 | 0.575 |
| CC(C)C[C@H]1NC(=O)[C@@H]2CCCN2C(=O)[C@H]2CCCN2C(=O)[C@H](C(C)C)NC(=O)[C@@H](CC(C)C)NC(=O)[C@@H]2CCCN2C(=O)[C@H]2CCCN2C(=O)[C@H](C(C)C)NC1=O (single isomer, unassigned) [D8.12 p1, DLEU VAL DPRO PRO DLEU VAL DPRO PRO] | 1.52E-07 | 1.92E-07 | 0.169 |
| CC(C)C[C@@H]1C(=O)N[C@H](C(C)C)C(=O)N(C)[C@@H](C(C)C)C(=O)N2CCC[C@H]2C(=O)N2CCC[C@@H]2C(=O)N[C@@H](C)C(=O)N(C)[C@@H](Cc2ccccc2)C(=O)N(C)[C@H](CC(C)C)C(=O)N[C@H](C)C(=O)N1C [Design D9.17, DPRO ALA *PHE *DLEU DALA *DLEU DVAL *VAL PRO] (cyclo(A[NMeF][dNMeL][dA][dNMeL][dV][NMeV]P[dP])) | 2.83E-06 | 4.13E-07 | 1.74 |
| CC(C)C[C@@H]1C(=O)N2CCC[C@@H]2C(=O)N(C)[C@@H](C(C)C)C(=O)N[C@@H](C(C)C)C(=O)N2CCC[C@H]2C(=O)N2CCC[C@@H]2C(=O)N[C@@H](C)C(=O)N[C@H](C(C)C)C(=O)N(C)[C@@H](CC(C)C)C(=O)N[C@@H](C)C(=O)N1C [Design D10.6, PRO DPRO ALA DVAL *LEU ALA *DLEU DPRO *VAL VAL] (cyclo(A[dNMeL][dP][NMeV]VP[dP]A[dV][NMeL])) | 1.62E-06 | 7.67E-07 | 1.22 |
| CC(C)C[C@H]1NC(=O)[C@H]2CCCN2C(=O)[C@@H]2CCCN2C(=O)[C@@H](Cc2ccccc2)NC(=O)[C@@H](C(C)C)NC(=O)[C@H](CC(C)C)N(C)C(=O)[C@@H](Cc2ccccc2)NC1=O (single isomer, unassigned) [Design D7.7.p1, PRO DPRO DLEU DPHE *LEU DVAL DPHE] | 8.16e-06 cm/s | 9.31e-06 cm/s | 8.43 |
| CC[C@H](C)[C@@H]1NC(=O)[C@H](Cc2ccccc2)N(C)C(=O)[C@H](CC(C)C)N(C)C(=O)[C@@H](C(C)C)NC(=O)[C@@H](C)NC(=O)[C@@H]2CCCN2C(=O)[C@@H](CC(C)C)NC(=O)[C@@H]2CCCN2C(=O)[C@H](C)NC1=O [Design D9.6, PRO DALA DVAL *LEU *PHE ILE ALA PRO DLEU] | 1.38E-06 | 1.96E-06 | 1.63 |
| CC[C@H](C)[C@@H]1NC(=O)[C@H](C(C)C)NC(=O)[C@@H](CC(C)C)N(C)C(=O)[C@H](Cc2ccccc2)NC(=O)[C@@H](CC(C)C)N(C)C(=O)[C@@H](C)N(C)C(=O)[C@H]2CCCN2C(=O)[C@@H]2CCCN2C(=O)[C@H](CC(C)C)NC(=O)[C@@H](C)N(C)C(=O)[C@@H]2CCCN2C1=O [Design D11.20, PRO *DALA LEU PRO DPRO *DALA *DLEU PHE *DLEU VAL ILE] (cyclo(F[dNMeL]VIP[dNMeA]LP[dP][dNMeA][dNMeL])) | 1.21E-06 | 9.60E-07 | 1.29 |
| CC[C@@H](C)[C@H]1NC(=O)[C@H](CC(C)C)N(C)C(=O)[C@H]2CCCN2C(=O)[C@H](CC(C)C)NC(=O)[C@@H](Cc2ccccc2)N(C)C(=O)[C@H](CC(C)C)N(C)C(=O)[C@@H](C(C)C)NC(=O)[C@H](C)NC(=O)[C@H]2CCCN2C(=O)[C@@H]2CCCN2C1=O (single isomer, unassigned) [Design D10.60.p1, *LEU *DPHE LEU DPRO *LEU DILE PRO DPRO ALA DVAL] | 6.58E-07 | 1.13E-06 | 0.65 |
| CC[C@H](C)[C@@H]1NC(=O)[C@@H]2CCCN2C(=O)[C@H]2CCCN2C(=O)[C@@H](CC(C)C)NC(=O)[C@@H](CC(C)C)N(C)C(=O)[C@@H]2CCCN2C(=O)[C@H](Cc2ccccc2)N(C)C(=O)[C@@H](Cc2ccccc2)NC1=O [Design D8.14, PRO ILE DPHE*PHE PRO *DLEU DLEU DPRO] (cyclo(I[dF][NMeF]P[dNMeL][dL][dP]P)) | 1.14E-06 | 7.14E-07 | 0.971 |

— publication PMC9490236, “Accurate de novo design of membrane-traversing macrocycles” (Cell, 2022)
